Measurements taken from patent US20230085307A1, “PYRIDAZINONE COMPOUND AND HERBICIDE” (NISSAN CHEMICAL CORPORATION, priority 2019, published 2023).

Legend:
windgrass [1] = experiment: Test Example 4: herbicidal effect by soil treatment (Table 19, symbol L); type: in vivo, windgrass (Apera spica-venti); details: amount of applied herbicide 320 g/ha
Summary of the method: (§1)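 Scoring uses the grading scale of an earlier test, three weeks post-application. Treatment consists of spraying a diluted emulsion formulation across the surface of sterilized diluvial soil in which seeds are buried near 1.5 cm deep; boxes are kept in a greenhouse between 25° C. and 30° C.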

barnyard grass [2] = experiment: Test Example 3: herbicidal effect by foliage application, Wagner pot (Table 18, symbol H); type: in vivo, barnyard grass (Echinochloa crus-galli); details: 320 g/ha
Summary of the method: (§2)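 Plants were sown in alluvial soil held under 0.1–0.5 cm standing water and grown 14 days in a greenhouse at 25–30 °C. An emulsifiable formulation, water-diluted to the set dose, was then sprayed onto the foliage, and effects were scored three weeks later using previously defined criteria.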

persian speedwell [3] = experiment: Test Example 4: herbicidal effect by soil treatment (Table 19, symbol R); type: in vivo, Persian speedwell (Veronica persica); details: amount of applied herbicide 320 g/ha
Summary of the method: as §1

wild oat [4] = experiment: Test Example 5: herbicidal effect by foliage application, plastic box (Table 20, symbol I); type: in vivo, wild oat (Avena fatua); details: foliage application, 320 g/ha, three weeks after application
Summary of the method: (§3)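 Post-emergence foliar test in sterilized diluvial soil. Compound applied as water-diluted emulsion at a predetermined rate to 14-day-old plants; evaluation at three weeks.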

chickweed [5] = experiment: Test Example 5: herbicidal effect by foliage application, plastic box (Table 20, symbol P); type: in vivo, common chickweed (Stellaria media); details: foliage application, 320 g/ha, three weeks after application
Summary of the method: as §3

late watergrass = experiment: Test Example 1: herbicidal activity, application before weed generation under submerged conditions (Table 16, symbol A); type: in vivo, late watergrass (Echinochloa oryzicola); details: 320 g/ha applied herbicide
Summary of the method: (§4)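 Emulsion formulation, water-diluted to set dose, was put onto the flooded surface (4 cm depth, alluvial soil) the same day weeds were sown and 2.5-leaf rice transplanted. After 3 weeks at 25-30 °C under glass, each species was rated 0 (≤5% kill) to 5 (≥90% kill).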

false cleavers [6] = experiment: Test Example 4: herbicidal effect by soil treatment (Table 19, symbol Q); type: in vivo, false cleavers (Galium spurium); details: amount of applied herbicide 320 g/ha
Summary of the method: as §1

barnyard grass [7] = experiment: Test Example 4: herbicidal effect by soil treatment (Table 19, symbol H); type: in vivo, barnyard grass (Echinochloa crus-galli); details: amount of applied herbicide 320 g/ha
Summary of the method: as §1

false cleavers [8] = experiment: Test Example 5: herbicidal effect by foliage application, plastic box (Table 20, symbol Q); type: in vivo, false cleavers (Galium spurium); details: foliage application, 320 g/ha, three weeks after application
Summary of the method: as §3

lambsquarters [9] = experiment: Test Example 4: herbicidal effect by soil treatment (Table 19, symbol O); type: in vivo, lambsquarters (Chenopodium album); details: amount of applied herbicide 320 g/ha
Summary of the method: as §1

velvetleaf [10] = experiment: Test Example 4: herbicidal effect by soil treatment (Table 19, symbol M); type: in vivo, velvetleaf (Abutilon theophrasti); details: amount of applied herbicide 320 g/ha
Summary of the method: as §1

persian speedwell [11] = experiment: Test Example 5: herbicidal effect by foliage application, plastic box (Table 20, symbol R); type: in vivo, Persian speedwell (Veronica persica); details: foliage application, 320 g/ha, three weeks after application
Summary of the method: as §3

windgrass [12] = experiment: Test Example 5: herbicidal effect by foliage application, plastic box (Table 20, symbol L); type: in vivo, windgrass (Apera spica-venti); details: foliage application, 320 g/ha, three weeks after application
Summary of the method: as §3

oval-leafed pondweed = experiment: Test Example 1: herbicidal activity, application before weed generation under submerged conditions (Table 16, symbol C); type: in vivo, oval-leafed pondweed (Monochoria vaginalis); details: 320 g/ha applied herbicide
Summary of the method: as §4

redroot pigweed [13] = experiment: Test Example 5: herbicidal effect by foliage application, plastic box (Table 20, symbol N); type: in vivo, redroot pigweed (Amaranthus retroflexus); details: foliage application, 320 g/ha, three weeks after application
Summary of the method: as §3

green foxtail [14] = experiment: Test Example 5: herbicidal effect by foliage application, plastic box (Table 20, symbol G); type: in vivo, green foxtail (Setaria viridis); details: foliage application, 320 g/ha, three weeks after application
Summary of the method: as §3

velvetleaf [15] = experiment: Test Example 5: herbicidal effect by foliage application, plastic box (Table 20, symbol M); type: in vivo, velvetleaf (Abutilon theophrasti); details: foliage application, 320 g/ha, three weeks after application
Summary of the method: as §3

Italian ryegrass [16] = experiment: Test Example 4: herbicidal effect by soil treatment (Table 19, symbol K); type: in vivo, Italian ryegrass (Lolium multiflorum); details: amount of applied herbicide 320 g/ha
Summary of the method: as §1

rice flat sedge = experiment: Test Example 3: herbicidal effect by foliage application, Wagner pot (Table 18, symbol E); type: in vivo, rice flat sedge (Cyperus iria); details: 320 g/ha
Summary of the method: as §2

lambsquarters [17] = experiment: Test Example 5: herbicidal effect by foliage application, plastic box (Table 20, symbol O); type: in vivo, lambsquarters (Chenopodium album); details: foliage application, 320 g/ha, three weeks after application
Summary of the method: as §3

Chinese sprangletop = experiment: Test Example 3: herbicidal effect by foliage application, Wagner pot (Table 18, symbol D); type: in vivo, chinese sprangletop (Leptochloa chinensis); details: 320 g/ha
Summary of the method: as §2

Japanese bulrush = experiment: Test Example 1: herbicidal activity, application before weed generation under submerged conditions (Table 16, symbol B); type: in vivo, Japanese bulrush (Schoenoplectus juncoides); details: 320 g/ha applied herbicide
Summary of the method: as §4

chickweed [18] = experiment: Test Example 4: herbicidal effect by soil treatment (Table 19, symbol P); type: in vivo, common chickweed (Stellaria media); details: amount of applied herbicide 320 g/ha
Summary of the method: as §1

blackgrass [19] = experiment: Test Example 4: herbicidal effect by soil treatment (Table 19, symbol J); type: in vivo, blackgrass (Alopecurus myosuroides); details: amount of applied herbicide 320 g/ha
Summary of the method: as §1

redroot pigweed [20] = experiment: Test Example 4: herbicidal effect by soil treatment (Table 19, symbol N); type: in vivo, redroot pigweed (Amaranthus retroflexus); details: amount of applied herbicide 320 g/ha
Summary of the method: as §1

barnyard grass [21] = experiment: Test Example 5: herbicidal effect by foliage application, plastic box (Table 20, symbol H); type: in vivo, barnyard grass (Echinochloa crus-galli); details: foliage application, 320 g/ha, three weeks after application
Summary of the method: as §3

blackgrass [22] = experiment: Test Example 5: herbicidal effect by foliage application, plastic box (Table 20, symbol J); type: in vivo, blackgrass (Alopecurus myosuroides); details: foliage application, 320 g/ha, three weeks after application
Summary of the method: as §3

southern crabgrass [23] = experiment: Test Example 4: herbicidal effect by soil treatment (Table 19, symbol F); type: in vivo, southern crabgrass (Digitaria ciliaris); details: amount of applied herbicide 320 g/ha
Summary of the method: as §1

wild oat [24] = experiment: Test Example 4: herbicidal effect by soil treatment (Table 19, symbol I); type: in vivo, wild oat (Avena fatua); details: amount of applied herbicide 320 g/ha
Summary of the method: as §1

Italian ryegrass [25] = experiment: Test Example 5: herbicidal effect by foliage application, plastic box (Table 20, symbol K); type: in vivo, Italian ryegrass (Lolium multiflorum); details: foliage application, 320 g/ha, three weeks after application
Summary of the method: as §3

green foxtail [26] = experiment: Test Example 4: herbicidal effect by soil treatment (Table 19, symbol G); type: in vivo, green foxtail (Setaria viridis); details: amount of applied herbicide 320 g/ha
Summary of the method: as §1

southern crabgrass [27] = experiment: Test Example 5: herbicidal effect by foliage application, plastic box (Table 20, symbol F); type: in vivo, southern crabgrass (Digitaria ciliaris); details: foliage application, 320 g/ha, three weeks after application
Summary of the method: as §3

Compound | herbicidal effect rating, L: windgrass (windgrass [1]) | herbicidal effect on H (barnyard grass), rating 0-5 (barnyard grass [2]) | herbicidal effect rating, R: persian speedwell (persian speedwell [3]) | herbicidal effect grade, I: wild oat (wild oat [4]) | herbicidal effect grade, P: chickweed (chickweed [5]) | Herbicidal effect on A: late watergrass (grade 0-5) (late watergrass) | herbicidal effect rating, Q: false cleavers (false cleavers [6]) | herbicidal effect rating, H: barnyard grass (barnyard grass [7]) | herbicidal effect grade, Q: false cleavers (false cleavers [8]) | herbicidal effect rating, O: lambsquarters (lambsquarters [9]) | herbicidal effect rating, M: velvetleaf (velvetleaf [10]) | herbicidal effect grade, R: persian speedwell (persian speedwell [11]) | herbicidal effect grade, L: windgrass (windgrass [12]) | Herbicidal effect on C: oval-leafed pondweed (grade 0-5) (oval-leafed pondweed) | herbicidal effect grade, N: redroot pigweed (redroot pigweed [13]) | herbicidal effect grade, G: green foxtail (green foxtail [14]) | herbicidal effect grade, M: velvetleaf (velvetleaf [15]) | herbicidal effect rating, K: Italian ryegrass (Italian ryegrass [16]) | herbicidal effect on E (rice flat sedge), rating 0-5 (rice flat sedge) | herbicidal effect grade, O: lambsquarters (lambsquarters [17]) | also measured
CCCCCOc1ccc(-c2sc3ccccc3c2-c2c(OC(=O)CCC)c(C)nn(C)c2=O)cc1 [1-027] | 0 (Herbicidal rate of 5% or less (almost no effect)) | 3 (Herbicidal rate of 40% or more and less than 70%) | 2 (Herbicidal rate of 20% or more and less than 40%) | 0 (Herbicidal rate of 5% or less (almost no effect)) | 5 (Herbicidal rate of 90% or more (almost completely withered)) | 0 (Herbicidal rate of 5% or less (almost no effect)) | 3 (Herbicidal rate of 40% or more and less than 70%) | 0 (Herbicidal rate of 5% or less (almost no effect)) | 3 (Herbicidal rate of 40% or more and less than 70%) | 0 (Herbicidal rate of 5% or less (almost no effect)) | 0 (Herbicidal rate of 5% or less (almost no effect)) | 4 (Herbicidal rate of 70% or more and less than 90%) | 0 (Herbicidal rate of 5% or less (almost no effect)) | 0 (Herbicidal rate of 5% or less (almost no effect)) | 5 (Herbicidal rate of 90% or more (almost completely withered)) | 0 (Herbicidal rate of 5% or less (almost no effect)) | 3 (Herbicidal rate of 40% or more and less than 70%) | 0 (Herbicidal rate of 5% or less (almost no effect)) | 1 (Herbicidal rate of 5% or more and less than 20%) | 3 (Herbicidal rate of 40% or more and less than 70%) | herbicidal effect on D (Chinese sprangletop), rating 0-5 (Chinese sprangletop): 2 (Herbicidal rate of 20% or more and less than 40%); Herbicidal effect on B: Japanese bulrush (grade 0-5) (Japanese bulrush): 2 (Herbicidal rate of 20% or more and less than 40%); herbicidal effect rating, P: chickweed (chickweed [18]): 2 (Herbicidal rate of 20% or more and less than 40%); herbicidal effect rating, J: blackgrass (blackgrass [19]): 0 (Herbicidal rate of 5% or less (almost no effect)); herbicidal effect rating, N: redroot pigweed (redroot pigweed [20]): 0 (Herbicidal rate of 5% or less (almost no effect)); herbicidal effect grade, H: barnyard grass (barnyard grass [21]): 3 (Herbicidal rate of 40% or more and less than 70%); herbicidal effect grade, J: blackgrass (blackgrass [22]): 0 (Herbicidal rate of 5% or less (almost no effect)); herbicidal effect rating, F: southern crabgrass (southern crabgrass [23]): 0 (Herbicidal rate of 5% or less (almost no effect)); herbicidal effect rating, I: wild oat (wild oat [24]): 0 (Herbicidal rate of 5% or less (almost no effect)); herbicidal effect grade, K: Italian ryegrass (Italian ryegrass [25]): 0 (Herbicidal rate of 5% or less (almost no effect)); herbicidal effect rating, G: green foxtail (green foxtail [26]): 0 (Herbicidal rate of 5% or less (almost no effect)); herbicidal effect grade, F: southern crabgrass (southern crabgrass [27]): 0 (Herbicidal rate of 5% or less (almost no effect))
CCCCCCOc1ccc(-c2sc3ccccc3c2-c2c(O)c(C)nn(C)c2=O)cc1 [1-028] | 0 (Herbicidal rate of 5% or less (almost no effect)) | 3 (Herbicidal rate of 40% or more and less than 70%) | 0 (Herbicidal rate of 5% or less (almost no effect)) | 3 (Herbicidal rate of 40% or more and less than 70%) | 5 (Herbicidal rate of 90% or more (almost completely withered)) | 1 (Herbicidal rate of 5% or more and less than 20%) | 0 (Herbicidal rate of 5% or less (almost no effect)) | 0 (Herbicidal rate of 5% or less (almost no effect)) | 4 (Herbicidal rate of 70% or more and less than 90%) | 0 (Herbicidal rate of 5% or less (almost no effect)) | 0 (Herbicidal rate of 5% or less (almost no effect)) | 3 (Herbicidal rate of 40% or more and less than 70%) | 3 (Herbicidal rate of 40% or more and less than 70%) | 0 (Herbicidal rate of 5% or less (almost no effect)) | 5 (Herbicidal rate of 90% or more (almost completely withered)) | 4 (Herbicidal rate of 70% or more and less than 90%) | 3 (Herbicidal rate of 40% or more and less than 70%) | 0 (Herbicidal rate of 5% or less (almost no effect)) | 4 (Herbicidal rate of 70% or more and less than 90%) | 3 (Herbicidal rate of 40% or more and less than 70%) | herbicidal effect on D (Chinese sprangletop), rating 0-5 (Chinese sprangletop): 0 (Herbicidal rate of 5% or less (almost no effect)); Herbicidal effect on B: Japanese bulrush (grade 0-5) (Japanese bulrush): 2 (Herbicidal rate of 20% or more and less than 40%); herbicidal effect rating, P: chickweed (chickweed [18]): 0 (Herbicidal rate of 5% or less (almost no effect)); herbicidal effect rating, J: blackgrass (blackgrass [19]): 0 (Herbicidal rate of 5% or less (almost no effect)); herbicidal effect rating, N: redroot pigweed (redroot pigweed [20]): 2 (Herbicidal rate of 20% or more and less than 40%); herbicidal effect grade, H: barnyard grass (barnyard grass [21]): 0 (Herbicidal rate of 5% or less (almost no effect)); herbicidal effect grade, J: blackgrass (blackgrass [22]): 0 (Herbicidal rate of 5% or less (almost no effect)); herbicidal effect rating, F: southern crabgrass (southern crabgrass [23]): 0 (Herbicidal rate of 5% or less (almost no effect)); herbicidal effect rating, I: wild oat (wild oat [24]): 0 (Herbicidal rate of 5% or less (almost no effect)); herbicidal effect grade, K: Italian ryegrass (Italian ryegrass [25]): 2 (Herbicidal rate of 20% or more and less than 40%); herbicidal effect rating, G: green foxtail (green foxtail [26]): 0 (Herbicidal rate of 5% or less (almost no effect)); herbicidal effect grade, F: southern crabgrass (southern crabgrass [27]): 0 (Herbicidal rate of 5% or less (almost no effect))
